Experimental data taken from US20200297711A1, “PHARMACEUTICAL COMPOSITION COMPRISING FGFR SELECTIVE TYROSINE KINASE INHIBITOR” (priority 2017, published 2020).
Marks after values point to notes of the source that are not given here.

Assay: Pharmacokinetics in plasma following single dose and repeated doses of Compound A 1.5 succinate
Type: in vivo, human
Conditions: Compound B
Method: In order to evaluate the PK when administered as a single dose, a single dose of Compound A for each treatment group (at the corresponding dosage for that group) was administered on Day 1. Compound A was administered when fasted, immediately after waking up with at least 10 hours fasting. Taking any meal was prohibited for 2 hours after administration and only drinking water was allowed.
Cycle 1 was started between 8 and 10 days after dosing in Cycle 0 and Compound A was administered continuously once daily. Compound A was administered at least 2 hours after breakfast, and any food intake was prohibited for 1 hour after administration. However, on Day 8 of Cycle 1, Compound A was administered immediately after waking up while the subject was fasted after at least 10 hours of overnight fasting in order to evaluate the PK. Taking any meals was prohibited for 2 hours after administration and only drinking water was allowed.
Plasma concentration profile of Compound A following a single dose and repeated doses of Compound A 1.5 succinate are shown in FIG. 1 and FIG. 2, respectively. The profile shown in FIG. 2 is that at steady state.
(§1) The pharmacokinetic parameters of Compound A following the single dose and repeated doses of Compound A 1.5 succinate are shown in the following table. The pharmacokinetic parameters of Compound A following repeated doses of Compound A 1.5 succinate shown below are those at steady state.
as §1, with “1.5 succinate updated after obtaining the above data are shown” for “1.5 succinate are shown”
The pharmacokinetic parameters of Compound B following the single dose and repeated doses of Compound A 1.5 succinate are shown in the following table. The pharmacokinetic parameters of Compound B following repeated doses of Compound A 1.5 succinate shown below are those at steady state.

[1] = repeated once-daily doses of Compound A 30 mg, steady state (n = 2)
[2] = repeated once-daily doses of Compound A 60 mg, steady state (n = 2)
[3] = repeated once-daily doses of Compound A 100 mg, steady state (n = 3)
[4] = repeated once-daily doses of Compound A 140 mg, steady state (n = 3)
[5] = repeated once-daily doses of Compound A 180 mg, steady state (n = 3)
[6] = single dose of Compound A 30 mg (n = 2)
[7] = single dose of Compound A 60 mg (n = 3)
[8] = single dose of Compound A 100 mg (n = 3)
[9] = single dose of Compound A 140 mg (n = 3)
[10] = single dose of Compound A 180 mg (n = 3)

- AUC(0-t) [1]: 194 ng·h/mL
- Cavg [1]: 7.71 ng/mL
- Cmax [1]: 12.4 ng/mL
- Cmin [1]: 5.19 ng/mL
- tmax, median (minimum − maximum) [1]: 3.49 (1.97-5.00) h
- AUC(0-t) [2]: 565 ^a^ h* ng/mL
- Cavg [2]: 22.6 ^a ng/mL
- Cmax [2]: 44.2 ^a ng/mL
- Cmin [2]: 12.3 ^a ng/mL
- tmax, median (minimum − maximum) [2]: 2.54 (2.07-3.00) ^a h
- AUC(0-t) [3]: 805 ± 195 ng·h/mL
- Cavg [3]: 32.3 ± 7.79 ng/mL
- Cmax [3]: 55.4 ± 14.5 ng/mL
- Cmin [3]: 17.4 ± 7.37 ng/mL
- tmax, median (minimum − maximum) [3]: 5.00 (4.98-5.05) h
- AUC(0-t) [4]: 1620 ± 460 ng·h/mL
- Cavg [4]: 66.1 ± 18.8 ng/mL
- Cmax [4]: 106 ± 51.8 ng/mL
- Cmin [4]: 41.5 ± 10.9 ng/mL
- tmax, median (minimum − maximum) [4]: 5.00 (2.98-5.08) h
- AUC(0-t) [5]: 1500 ± 686 ng·h/mL
- Cavg [5]: 60.4 ± 27.7 ng/mL
- Cmax [5]: 98.0 ± 39.5 ng/mL
- Cmin [5]: 32.8 ± 13.0 ng/mL
- tmax, median (minimum − maximum) [5]: 5.00 (3.05-5.08) h
- AUC(0-inf) [6]: 297 ng·h/mL
- AUC(0-t) [6]: 274 ng·h/mL
- Cmax [6]: 19.2 ng/mL
- t1/2 [6]: 21.5 h
- tmax, median (minimum − maximum) [6]: 3.59 (2.02-5.15) h
- AUC(0-inf) [7]: 687 ± 354 ng·h/mL
- AUC(0-t) [7]: 652 ± 352 ng·h/mL
- Cmax [7]: 35.1 ± 19.1 ng/mL
- t1/2 [7]: 26.1 ± 10.2 h
- tmax, median (minimum − maximum) [7]: 4.98 (3.00-5.07) h
- AUC(0-inf) [8]: 699 ± 163 ng·h/mL
- AUC(0-t) [8]: 647 ± 153 ng·h/mL
- Cmax [8]: 38.4 ± 4.36 ng/mL
- t1/2 [8]: 20.0 ± 0.794 h
- tmax, median (minimum − maximum) [8]: 4.95 (2.97-5.10) h
- AUC(0-inf) [9]: 1410 ± 216 ng·h/mL
- AUC(0-t) [9]: 1350 ± 233 ng·h/mL
- Cmax [9]: 63.8 ± 36.1 ng/mL
- t1/2 [9]: 40.50 ± 6.46 h
- tmax, median (minimum − maximum) [9]: 5.00 (4.88-5.08) h
- AUC(0-inf) [10]: 1370 ± 703 ng·h/mL
- AUC(0-t) [10]: 1320 ± 693 ng·h/mL
- Cmax [10]: 50.7 ± 20.7 ng/mL
- t1/2 [10]: 39.9 ± 6.27 h
- tmax, median (minimum − maximum) [10]: 5.00 (3.00-5.02) h
SMILES: CNC(=O)n1ccc2cc(Oc3ccnc(NC(=O)c4ccc(C5CCNCC5)cc4)c3)c(OCCOC)cc21 [Compound B, 6-(2-Methoxyethoxy)-N-methyl-5-((2-(4-(piperidin-4-yl)benzamide)pyridin-4-yl)oxy)-1H-indole-1-carboxamide]
